Results: patent US20190358199A1 (priority 2010, published 2019)

Legend:
[1] = Six-week double-blind placebo-controlled Phase 2 study, safety and tolerability; assay type: in vivo, human
Method: Subjects were evaluated for safety parameters prior to and throughout the trial by a variety of measures including electrocardiogram, physical examination, vital signs and body weight, and clinical laboratory testing including a lipid panel, CBC with differential and urinalysis, Samples were drawn to assess total bilirubin, alkaline phosphatase, ALT (SGPT), AST (SGOT), blood urea nitrogen (BUN), creatinine, glucose, uric acid, calcium, phosphorus, total protein, albumin, total cholesterol, LDL, HDL, triglycerides, sodium, potassium, bicarbonate, chloride, GGT and creatine kinase, Hepatitis B, C and HIV serologies, TSH, drug screen and serum pregnancy test for females.
(§1) • Visits and evaluations were performed according to the following schedule of events: • Visit 1: Screening Visit: • The following was obtained/performed at the Screening Visit (Visit 1): • Written informed consent • Medical history including: • Relevant demographic information • Detailed medical and surgical history, including review of systems • Whenever possible, the patient's medical history was confirmed by medical records. • Prior medication: Medication taken by the patients 30 days prior to the Screening Visit was recorded. • AE assessment • Height (cm) • Weight (kg); BMI was determined and was ≤35 for the patient to be randomized • Complete physical examination • MINI diagnostic exam • Vital signs (respiratory rate, oral temperature (° C.), blood pressure, pulse). […] The capsules were taken for 7 days prior to the Baseline/Day 1 Visit (Visit 3). The first dose of placebo was taken at the clinic with 240 mL of water after a light meal. • Patients were provided with a diary to record the date, time and dosage of each dose.
(§2) Efficacy was determined by measuring the change from baseline in the Montgomery-Åsberg Depression Rating Scale (MADRS), the HAMD-17, the Clinical Global Impression Global Improvement Scale (CGI-I), the Clinical Global Impression-Severity scale (CGI-S) and the Derogatis Interview for Sexual Functioning Self-Report (DISF-SR). […] Comparisons between treatment groups based on MADRS (the primary efficacy parameter), HAMD-17, Anhedonia, DISF-SR, CGI-I and CGI-S scores were analyzed using a mixed-repeated measures (MMRM) analysis model including factors for Subject, Visit, Treatment Arm and Baseline value as a covariate. Adjusted least-squares means from these models are presented. Comparisons between groups were made at each post-baseline visit using model-based contrasts and adjusted degrees of freedom. For these analyses no explicit data imputations were made prior to the analysis. Response and remission categorical data were analyzed using chi-square tests. Inferential analyses of safety data were conducted with ANOVA models or chi-square tests. Two-tail alpha was set to 0.05. All analyses were conducted using SAS version 9.2.

[2] = tested on: patients with Major Depressive Disorder; test: Six-week double-blind placebo-controlled Phase 2 study, efficacy; assay type: in vivo, human
Description: Subjects were identified who were between the ages of 18-65 (inclusive), and met criteria for Major Depressive Disorder in accordance with the Diagnostic and Statistical manual of Mental Disorders-IV-TR and confirmed by the MINI International Neuropsychiatric Interview.
Subjects were required to refrain from taking antidepressants, anticonvulsants including gabapentin and pregabalin, neuroleptics, MAO inhibitors, barbiturates, benzodiazepines, stimulants, antipsychotics, lithium, anxiolytics and beta blockers starting two weeks prior to the study and continuing until after the follow-up visit.
as §1, §2

[3] = tested on: symptoms of depression; details: eight weeks of treatment; Sepracor Press Release, Jul. 1, 2009; cited from earlier work

| Compound | percentage of patients who reported an adverse treatment event ([1]; 10 patients, placebo 11 or 39.28%) | Treatment-Emergent Adverse Events: Abdominal Pain (NOS) (% of Patients) ([1]; n = 33) | Treatment-Emergent Adverse Events: Anxiety (% of Patients) ([1]; n = 33) | Treatment-Emergent Adverse Events: Diarrhea NOS (% of Patients) ([1]; n = 33) | Treatment-Emergent Adverse Events: Emotional Disturbance NOS (% of Patients) ([1]; n = 33) | Treatment-Emergent Adverse Events: Headache NOS (% of Patients) ([1]; n = 33) | Treatment-Emergent Adverse Events: Irritability (% of Patients) ([1]; n = 33) | Treatment-Emergent Adverse Events: Nausea (% of Patients) ([1]; n = 33) | Treatment-Emergent Adverse Events: Rash NOS (% of Patients) ([1]; n = 33) | Treatment-Emergent Adverse Events: Upper Respiratory Tract Infection NOS (% of Patients) ([1]; n = 33) | patients who discontinued the study early due to AEs ([1]; same number in the placebo group) | serious AEs ([1]; six-week study) | Response rate, MADRS ([2]; Visit 8, LOCF, Completers, 100 mg, 50% reduction or more of baseline total score, 8/20) | Response rate, HAMD-17 ([2]; Visit 8, LOCF, Completers, 100 mg, 50% reduction or more of baseline total score, 11/20) | Remission rate, HAMD-17 ([2]; Visit 8, LOCF, Completers, 100 mg, HAMD-17 ≤ 7, 4/20) | Remission rate, MADRS ([2]; Visit 8, LOCF, Completers, 100 mg, MADRS ≤ 12, 6/20) | CGI-S LS mean, Difference placebo vs drug ([2]; Visit 8, MMRM, MITT, 95% CI (−0.21, 0.66), P = 0.306) | overall statistical effect size (Cohen's d), MADRS total score vs placebo ([2]; Week 6, MMRM) | primary efficacy endpoint compared to placebo (reduction in symptoms of depression, 17-item HAM-D) [3] |
| --- | --- | --- | --- | --- | --- | --- | --- | --- | --- | --- | --- | --- | --- | --- | --- | --- | --- | --- | --- |
| Clc1ccc([C@]23CNC[C@H]2C3)cc1Cl [(+)-1-(3,4-dichlorophenyl)-3-azabicyclo[3.1.0]hexane] | 30.30% | 2 (6.06%) | 2 (6.06%) | 2 (6.06%) | 2 (6.06%) | 3 (9.09%) | 2 (6.06%) | 2 (6.06%) | 2 (6.06%) | 2 (6.06%) | Two | no serious AEs were reported | 40.00% | 55.00% | 20.00% | 30.00% | 0.22 | −0.63 |  |
| N[C@@H]1CC[C@@H](c2ccc(Cl)c(Cl)c2)c2ccccc21 [SEP-225289] |  |  |  |  |  |  |  |  |  |  |  |  |  |  |  |  |  |  | did not meet the primary efficacy endpoint compared to placebo |
